Assay results: patent US20240156825A1, “USE OF SELECTIVE VEGFR2 AND FGFR1 INHIBITORS” (Fountain Therapeutics Inc., priority 2022, published 2024)
Like-named read-outs stand apart in the source and are kept apart here.

How the values were obtained:
[1] = system: VEGFR2 and FGFR1; experiment: Selection of compounds that selectively inhibit both VEGFR2 and FGFR1 (average relative IC50); format: biochemical
[2] = molecular target: T1, VEGFR2 (Homo sapiens, UniProt P35968); details: relative IC50: reported IC50 toward VEGFR2 divided by next lowest reported IC50 to any gene target
T1 sequence (P35968 20-1356, species assumed): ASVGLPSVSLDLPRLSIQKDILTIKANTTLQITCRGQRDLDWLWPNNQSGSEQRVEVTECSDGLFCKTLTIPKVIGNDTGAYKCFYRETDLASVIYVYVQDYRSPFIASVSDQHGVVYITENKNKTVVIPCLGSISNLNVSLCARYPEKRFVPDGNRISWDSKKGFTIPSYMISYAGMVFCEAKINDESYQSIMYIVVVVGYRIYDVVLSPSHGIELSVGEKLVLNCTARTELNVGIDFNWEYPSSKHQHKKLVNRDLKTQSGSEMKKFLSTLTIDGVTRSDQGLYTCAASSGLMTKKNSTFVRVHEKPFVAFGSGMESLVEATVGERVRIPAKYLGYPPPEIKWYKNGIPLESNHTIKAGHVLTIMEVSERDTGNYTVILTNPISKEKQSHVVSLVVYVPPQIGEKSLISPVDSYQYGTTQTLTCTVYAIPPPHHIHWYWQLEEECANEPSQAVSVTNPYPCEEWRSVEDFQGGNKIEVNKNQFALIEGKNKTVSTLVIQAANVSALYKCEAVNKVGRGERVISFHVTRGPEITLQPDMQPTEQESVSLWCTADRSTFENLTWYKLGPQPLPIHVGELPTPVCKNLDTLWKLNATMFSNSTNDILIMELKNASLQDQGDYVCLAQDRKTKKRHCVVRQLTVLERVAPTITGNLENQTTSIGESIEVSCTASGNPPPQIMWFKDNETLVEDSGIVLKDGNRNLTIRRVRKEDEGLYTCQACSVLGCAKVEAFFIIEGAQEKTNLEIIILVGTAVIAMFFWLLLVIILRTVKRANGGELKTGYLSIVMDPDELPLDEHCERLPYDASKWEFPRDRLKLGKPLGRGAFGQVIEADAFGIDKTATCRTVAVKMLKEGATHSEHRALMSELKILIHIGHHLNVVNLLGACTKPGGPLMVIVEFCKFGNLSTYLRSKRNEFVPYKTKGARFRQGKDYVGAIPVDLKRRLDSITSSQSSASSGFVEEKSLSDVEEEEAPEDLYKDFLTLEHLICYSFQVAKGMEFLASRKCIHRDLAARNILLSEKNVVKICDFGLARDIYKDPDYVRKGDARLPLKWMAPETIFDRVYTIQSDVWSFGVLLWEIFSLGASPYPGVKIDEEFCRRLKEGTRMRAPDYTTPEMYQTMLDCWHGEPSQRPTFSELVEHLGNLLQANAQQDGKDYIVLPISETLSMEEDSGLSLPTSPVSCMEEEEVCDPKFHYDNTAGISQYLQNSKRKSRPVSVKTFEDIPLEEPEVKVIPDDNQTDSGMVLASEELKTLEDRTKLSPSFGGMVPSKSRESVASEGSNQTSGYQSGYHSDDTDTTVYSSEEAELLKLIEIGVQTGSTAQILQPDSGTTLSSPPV

[3] = system: any gene target; details: cited from earlier work
[4] = molecular target: FGFR1 (Homo sapiens, UniProt P11362); details: relative IC50: reported IC50 toward FGFR1 divided by next lowest reported IC50 to any gene target
Sequence of FGFR1 (P11362 22-822, species assumed): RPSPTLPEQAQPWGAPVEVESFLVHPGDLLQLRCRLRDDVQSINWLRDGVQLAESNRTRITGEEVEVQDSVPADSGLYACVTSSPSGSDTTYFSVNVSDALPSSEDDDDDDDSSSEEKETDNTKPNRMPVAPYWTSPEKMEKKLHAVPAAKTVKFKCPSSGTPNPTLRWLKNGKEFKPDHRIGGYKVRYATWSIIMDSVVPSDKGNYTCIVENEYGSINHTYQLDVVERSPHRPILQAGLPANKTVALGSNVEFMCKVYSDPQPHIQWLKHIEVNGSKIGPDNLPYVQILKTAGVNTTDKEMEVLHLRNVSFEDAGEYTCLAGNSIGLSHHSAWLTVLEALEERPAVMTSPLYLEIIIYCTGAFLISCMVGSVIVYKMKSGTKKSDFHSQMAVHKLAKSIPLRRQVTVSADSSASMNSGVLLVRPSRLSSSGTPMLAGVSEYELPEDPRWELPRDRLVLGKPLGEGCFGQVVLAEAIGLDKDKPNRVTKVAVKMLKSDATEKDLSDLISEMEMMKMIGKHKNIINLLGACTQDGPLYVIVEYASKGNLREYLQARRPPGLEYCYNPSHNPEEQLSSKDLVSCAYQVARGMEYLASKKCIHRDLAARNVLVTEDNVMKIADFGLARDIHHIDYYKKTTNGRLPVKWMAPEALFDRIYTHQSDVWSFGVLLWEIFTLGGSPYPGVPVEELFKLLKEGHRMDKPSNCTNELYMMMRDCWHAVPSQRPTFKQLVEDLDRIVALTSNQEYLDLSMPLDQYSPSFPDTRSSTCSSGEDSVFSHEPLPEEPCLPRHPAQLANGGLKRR

[5] = molecular target: T1, VEGFR2; details: reported IC50 to VEGFR2; Table 3, selective inhibitors of VEGFR2; read-out: VEGFR2 IC50_μM; cited from earlier work
[6] = average of VEGFR2 and FGFR1 relative IC50
[7] = lowest reported IC50 to any gene target, read-out: Min IC50_μM
[8] = lowest reported IC50 to any gene target, read-out: min IC50
[9] = next lowest IC50 value to any gene target, read-out: Min IC50_μM
[10] = next lowest IC50 value to any gene target, Table 3, read-out: Min IC50_μM

| SMILES | VEGFR2, rIC50 [2] | avg rIC50 [1, 6] | IC50 [3, 8] | also measured |
| --- | --- | --- | --- | --- |
| Oc1cc2c(cc1O)C1c3ccc(O)c(O)c3OCC1(O)C2 (stereo not drawn) [compound 442514, Haematoxylin] | 9.5 | – | – | avg rIC50 [1]: 5.5 |
| COc1cc(OC)cc(-c2cc3cnc(NCCCN4CCOCC4)cc3nc2NC(=O)NC(C)(C)C)c1 [compound 5329004, 1,6-Naphthyridine deriv. 20, reference compound] | – | 5.0 | – | – |
| COc1cc(OC)cc(-c2cc3cnc(NCCCN4CCN(C)CC4)cc3nc2NC(=O)NC(C)(C)C)c1 [compound 5330127, 1,6-Naphthyridine 17, reference compound] | – | 3.0 | – | – |
| CCN(CC)CCCNc1cc2nc(NC(=O)NC(C)(C)C)c(-c3cc(OC)cc(OC)c3)cc2cn1 [compound 5330128, 1,6-Naphthyridine 18, reference compound] | – | 4.3 | – | – |
| COc1cc(OC)cc(-c2cc3cnc(NCCCCN4CCOCC4)cc3nc2NC(=O)NC(C)(C)C)c1 [compound 5330129, 1,6-Naphthyridine 19, reference compound] | – | 1.5 | – | – |
| COc1cc(OC)cc(-c2cc3cnc(NCCCCN4CCN(C)CC4)cc3nc2NC(=O)NC(C)(C)C)c1 [compound 5330130, reference compound] | – | 4.3 | – | IC50 [3, 7]: 0.4 nM |
| COc1cc(OC)cc(-c2cc3cnc(NCCCCCN4CCN(C)CC4)cc3nc2NC(=O)NC(C)(C)C)c1 [compound 5330135, 1,6-Naphthyridine 25, reference compound] | – | 1.8 | 3 nM | IC50 [3, 7]: 3 nM |
| COc1cc(OC)cc(-c2cc3cnc(NCCCO)cc3nc2NC(=O)NC(C)(C)C)c1 [compound 5330157, 1,6-Naphthyridine 75, reference compound] | – | 1.4 | – | – |
| COc1cc(OC)cc(-c2cc3cnc(NCCCCCO)cc3nc2NC(=O)NC(C)(C)C)c1 [compound 5330159, 1,6-Naphthyridine 77, reference compound] | – | 1.5 | – | – |
| CCNC(=O)Nc1nc2nc(NCCCN3CCN(C)CC3)ncc2cc1-c1cc(OC)cc(OC)c1 [compound 5330166, Pyrido[2,3-d]pyrimidine 102, reference compound] | – | 2.6 | – | – |
| COc1cc(OC)cc(-c2cc3cnc(NCCCN4CCN(C)CC4)nc3nc2NC(=O)NC(C)(C)C)c1 [compound 5330167, Pyrido[2,3-d]pyrimidine 103, reference compound] | – | 2.3 | – | – |
| CCNC(=O)Nc1nc2nc(NCCCCN(CC)CC)ncc2cc1-c1cc(OC)cc(OC)c1 [compound 5330168, Pyrido[2,3-d]pyrimidine 104, reference compound] | – | 3.4 | – | – |
| COc1cc(OC)cc(-c2cc3cnc(NCCCO)nc3nc2NC(=O)NC(C)(C)C)c1 [compound 5330169, Pyrido[2,3-d]pyrimidine 105, reference compound] | – | 2.3 | – | – |
| NC(=O)c1c(OCc2c(F)cc(Br)cc2F)nsc1NC(=O)NCCCCN1CCCC1 [compound 9811611, 3-((4-Bromo-2,6-difluorobenzyl)oxy)-5-(3-(4-(pyrrolidin-1-yl)butyl)ureido)isothiazole-4-carboxamide] | 0.4 | 3.6 | 1 nM | IC50 [3, 9]: 3.08 nM; FGFR1, rIC50 [4]: 6.7 |
| COc1ccc(N2Cc3cnc(Nc4ccccc4)nc3N([C@@H]3CC[C@@H](O)C3)C2=O)cc1 [compound 9910609, (+)-(1R,3R)-1-(3-Hydroxy-cyclopentyl)-3-(4-methoxy-phenyl)-7-phenylamino-3,4-dihydro-1H-pyrimido[4,5-d]pyrimidin-2-one] | 0.4 | 1.4 | 28 nM | IC50 [3, 9]: 28 nM; FGFR1, rIC50 [4]: 2.4 |
| CONC(=O)c1cc(Nc2ncnn3cc(-c4nnc(C(F)F)o4)c(C(C)C)c23)c(F)cc1F [compound 10073832, 5-[6-(5-Difluoromethyl-[1,3,4]oxadiazol-2-yl)-5-isopropyl-pyrrolo[2,1-f][1,2,4]triazin-4-ylamino]-2,4-difluoro-N-methoxy-benzamide] | 1.0 | 1.1 | – | FGFR1, rIC50 [4]: 1.2 |
| CONC(=O)c1cc(Nc2ncnn3cc(-c4nnc(CC5CC5)o4)c(C(C)C)c23)c(F)cc1F [compound 11155938, 5-[6-(5-Cyclopropylmethyl-[1,3,4]oxadiazol-2-yl)-5-isopropyl-pyrrolo[2,1-f][1,2,4]triazin-4-ylamino]-2,4-difluoro-N-methoxy-benzamide, reference compound] | 1.0 | – | 4 nM | IC50 [5]: 4 nM; IC50 [3, 10]: 4 nM |
| COc1ccc(N2Cc3cnc(Nc4ccc(F)cc4)nc3N([C@@H]3CC[C@@H](O)C3)C2=O)cc1 [compound 11396738, 7-(4-Fluoroanilino)-1-[(1R,3R)-3-hydroxycyclopentyl]-3-(4-methoxyphenyl)-4H-pyrimido[4,5-d]pyrimidin-2-one, reference compound] | 0.6 | – | – | avg rIC50 [1]: 1.2; IC50 ([3]; read-out: Min IC50_μM): 83 nM; IC50 ([3]; read-out: min IC50): 83 nM |
| CONC(=O)c1cc(Nc2ncnn3cc(-c4nc(C)no4)c(C(C)C)c23)c(F)cc1F [compound 11419379, 2,4-Difluoro-5-[5-isopropyl-6-(3-methyl-[1,2,4]oxadiazol-5-yl)-pyrrolo[2,1-f][1,2,4]triazin-4-ylamino]-N-methoxy-benzamide, reference compound] | 1.0 | – | 7 nM | IC50 [5]: 6.8 nM; IC50 [3, 10]: 6.8 nM |
| CONC(=O)c1cc(Nc2ncnn3cc(-c4nnc(C(F)(F)S(C)(=O)=O)o4)c(C(C)C)c23)c(F)cc1F [compound 11432911, 5-{6-[5-(Difluoro-methanesulfonyl-methyl)-[1,3,4]oxadiazol-2-yl]-5-isopropyl-pyrrolo[2,1-f][1,2,4]triazin-4-ylamino}-2,4-difluoro-N-methoxy-benzamide] | 1.0 | 2.9 | – | FGFR1, rIC50 [4]: 4.8 |
| CONC(=O)c1cc(Nc2ncnn3cc(-c4nnc(C5CC5)o4)c(C(C)C)c23)c(F)cc1F [compound 11465545, 5-[6-(5-Cyclopropyl-[1,3,4]oxadiazol-2-yl)-5-isopropyl-pyrrolo[2,1-f][1,2,4]triazin-4-ylamino]-2,4-difluoro-N-methoxy-benzamide, reference compound] | 1.0 | – | 4 nM | IC50 [5]: 3.6 nM; IC50 [3, 10]: 3.6 nM |
| Oc1ccc(C[C@@]2(O)COc3c(ccc(O)c3O)[C@H]2O)cc1O [compound 24949852, Epihematoxylol] | 5.8 | – | – | avg rIC50 [1]: 3.7 |
| O=C1c2ccc(O)c(O)c2OC[C@]1(O)Cc1ccc(O)c(O)c1 [compound 44578561, Hematoxylone] | 7.2 | 5.3 | – | FGFR1, rIC50 [4]: 3.4 |
| CN(C)CCCc1cccc(Nc2ncc3c(n2)-c2ccc(Cl)cc2NC(=S)C3)c1 [compound 56945277, 9-Chloro-2-[3-[3-(dimethylamino)propyl]anilino]-5,7-dihydropyrimido[5,4-d][1]benzazepine-6-thione] | – | – | – | FGFR1, rIC50 [4]: 2.4 |
| CCN1CCC(Nc2ccc3c(c2)/C(=C(\c2cccc(F)c2)c2nc(C)c[nH]2)C(=O)N3)CC1 [compound 67163677, XL999; XL-999; XL 999, reference compound] | – | 2.0 | 2 nM | – |
| CNC(=O)c1cc(F)cc(N(CCNC(C)C)c2ccc3ncc(-c4cnn(C)c4)nc3c2)c1 [compound 68209105, reference compound] | – | 2.8 | 2 nM | IC50 ([3]; Table 2, lowest reported IC50 to any gene target, read-out: Min IC50_μM): 3.16 nM |
| COC(=O)c1ccc2c(c1)NC(=O)/C2=C(\Nc1ccc(CN2CCCCC2)cc1)c1ccccc1 [compound 135476706, Methyl (3Z)-2-oxo-3-[phenyl-[4-(piperidin-1-ylmethyl)anilino]methylidene]-1H-indole-6-carboxylate] | 1.1 | – | – | avg rIC50 [1]: 1.7; IC50 ([3]; read-out: min IC50): 32 nM |
| COC(=O)c1ccc2c(c1)NC(=O)/C2=C(\Nc1ccc(N(C)C(=O)CN2CCN(C)CC2)cc1)c1ccccc1 [compound 135476717, Nintedanib esylate] | 1.6 | – | 13 nM | avg rIC50 [1]: 3.5 |
